{
  "source": "ChEMBL document CHEMBL1158093",
  "about": "“Isolation, structure elucidation, and biological evaluation of 15-amido-3-demethoxy-2alpha,3alpha-methylenedioxyerythroculine, a new alkaloid from Hyperbaena valida” (J Nat Prod, 2006)",
  "key": {"[1]": {"target": "Neuronal acetylcholine receptor; alpha3/beta4 (Rattus norvegicus) (UniProt P04757+P12392)", "assay": "Agonist activity at rat alpha3beta4 nicotinic receptor expressed in KXalpha-3-beta-4R2 cells assessed as nicotine-induced calcium fluorescence", "format": "functional, cell-based"}, "[2]": {"target": "T1, Neuronal acetylcholine receptor; alpha3/beta4 (Rattus norvegicus, UniProt P04757+P12392)", "T1 sequence (P04757 whole entry)": "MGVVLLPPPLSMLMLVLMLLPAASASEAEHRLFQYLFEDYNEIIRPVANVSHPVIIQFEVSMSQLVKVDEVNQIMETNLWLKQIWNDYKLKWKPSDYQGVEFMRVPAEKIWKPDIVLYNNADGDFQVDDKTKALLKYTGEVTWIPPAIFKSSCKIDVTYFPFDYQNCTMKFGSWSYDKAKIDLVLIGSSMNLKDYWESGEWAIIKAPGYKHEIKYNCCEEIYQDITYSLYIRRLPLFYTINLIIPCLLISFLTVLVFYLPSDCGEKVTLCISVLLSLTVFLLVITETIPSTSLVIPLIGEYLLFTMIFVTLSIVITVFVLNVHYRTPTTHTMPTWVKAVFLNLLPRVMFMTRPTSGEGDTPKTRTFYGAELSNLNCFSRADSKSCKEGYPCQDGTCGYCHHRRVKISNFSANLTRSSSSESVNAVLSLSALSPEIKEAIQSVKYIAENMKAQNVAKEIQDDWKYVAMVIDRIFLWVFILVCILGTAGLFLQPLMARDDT", "T1 sequence (P12392 whole entry)": "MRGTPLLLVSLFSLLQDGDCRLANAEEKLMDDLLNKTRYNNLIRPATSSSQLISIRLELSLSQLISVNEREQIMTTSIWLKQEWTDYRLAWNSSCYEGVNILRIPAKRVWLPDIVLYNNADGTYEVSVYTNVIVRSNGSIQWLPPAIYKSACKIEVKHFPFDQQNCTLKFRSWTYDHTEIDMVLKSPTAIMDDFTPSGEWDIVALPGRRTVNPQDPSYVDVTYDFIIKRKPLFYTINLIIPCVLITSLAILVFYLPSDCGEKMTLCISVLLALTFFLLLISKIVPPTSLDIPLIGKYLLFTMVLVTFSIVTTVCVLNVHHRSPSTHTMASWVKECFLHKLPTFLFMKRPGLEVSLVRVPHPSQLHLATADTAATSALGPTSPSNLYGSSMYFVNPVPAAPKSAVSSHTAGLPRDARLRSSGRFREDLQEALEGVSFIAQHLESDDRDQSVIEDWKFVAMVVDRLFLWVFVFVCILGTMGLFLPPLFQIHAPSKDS", "assay": "Antagonist activity at rat alpha3beta4 nicotinic receptor expressed in KXalpha-3-beta-4R2 cells assessed as nicotine-induced calcium fluorescence", "format": "functional, cell-based"}, "[3]": {"target": "T1, Neuronal acetylcholine receptor; alpha3/beta4", "assay": "Activity at rat alpha3beta4 nicotinic receptor expressed in KXalpha-3-beta-4R2 cells assessed as nicotine-induced 86Rb+ efflux", "format": "cell-based"}},
  "note": "Activity calls are given as the source filed them. The calls are words filed in the database; no cut-off is given here.",
  "data": [
    {"smiles": "COC(=O)c1cc2c(cc1OC)CCN1CCC3=C[C@@H]4OCO[C@@H]4C[C@]321", "values": [
      {"measurement": "Activity", "setting": "[1]", "result": "inactive"},
      {"measurement": "IC50", "setting": "[2]", "result": 77, "unit": "µM"}
    ]},
    {"smiles": "COc1cc2c(cc1C(N)=O)[C@]13C[C@H]4OCO[C@H]4C=C1CCN3CC2", "values": [
      {"measurement": "Activity", "setting": "[1]", "result": "inactive"},
      {"measurement": "IC50", "setting": "[2]", "result": 94, "unit": "µM"}
    ]},
    {"smiles": "CO[C@H]1CC=C2CCN3CCC4=C(CC(=O)OC4)[C@]23C1", "values": [
      {"measurement": "IC50", "setting": "[3]", "result": 100, "unit": "µM"}
    ]}
  ]
}
